Experimental data from BindingDB's records for doi:10.1021/jm701348d (Inspire Pharmaceuticals, 2008).
Values joined by “and” are separate entries in the source; they are usually repeats but may differ in a detail not shown here. Identical values can stand only once.

Assay: Antagonist activity at P2Y12 receptor assessed as inhibition of ADP-induced human platelet aggregation by washed platelet assay

| SMILES | IC50 |
| --- | --- |
| CNc1ccccc1C(=O)O[C@H]1[C@@H](O)[C@H](n2ccc(=O)[nH]c2=O)O[C@@H]1COP(=O)(O)OP(=O)(O)OP(=O)(O)OP(=O)(O)OC[C@@H]1O[C@H](n2ccc(=O)[nH]c2=O)[C@@H](OC(=O)c2ccccc2NC)[C@H]1O | 7.59 µM |
| O=c1ccn([C@@H]2O[C@H](COP(=O)(O)OP(=O)(O)OP(=O)(O)OP(=O)(O)OC[C@@H]3O[C@H](n4ccc(=O)[nH]c4=O)[C@H]4OC(/C=C/c5ccccc5)O[C@H]43)[C@H]3OC(/C=C/c4ccccc4)O[C@H]32)c(=O)[nH]1 (some centres not stated) | 3.3 µM |
| O=c1ccn([C@@H]2O[C@H](COP(=O)(O)OP(=O)(O)OP(=O)(O)OP(=O)(O)OC[C@@H]3O[C@H](n4ccc(=O)[nH]c4=O)[C@@H](O)[C@H]3O)[C@H]3OC(/C=C/c4ccccc4)O[C@H]32)c(=O)[nH]1 (some centres not stated) | 8.68 µM and 8.8 µM |
| CCCCCCNC(=O)Nc1ncnc2c1ncn2[C@@H]1O[C@H](COP(=O)(O)O)[C@H]2OC(C#Cc3ccccc3)O[C@H]21 (some centres not stated) | 0.211 µM |
| CCCCCCNC(=O)Nc1ncnc2c1ncn2[C@@H]1O[C@H](COP(=O)(O)O)[C@H]2OC(/C=C/c3ccccc3)O[C@H]21 (some centres not stated) | 0.237 µM |
| CCNC(=O)Nc1ncnc2c1ncn2[C@@H]1O[C@H](COP(=O)(O)O)[C@H]2OC(c3ccccc3)O[C@H]21 (some centres not stated) | 0.013 µM |
| O=C(Nc1ncnc2c1ncn2[C@@H]1O[C@H](COP(=O)(O)O)[C@H]2OC(Cc3ccccc3)O[C@H]21)NC1CCCC1 (some centres not stated) | 0.0362 µM |
| CCNC(=O)Nc1ncnc2c1ncn2[C@@H]1O[C@H](COP(=O)(O)O)[C@H]2OC(Cc3ccccc3)O[C@H]21 (some centres not stated) | 0.041 µM |
| CCCCCCNC(=O)Nc1ncnc2c1ncn2[C@@H]1O[C@H](COP(=O)(O)O)[C@H]2OC(Cc3ccccc3)O[C@H]21 (some centres not stated) | 0.053 µM |
| O=C(Nc1ccccc1)Nc1ncnc2c1ncn2[C@@H]1O[C@H](COP(=O)(O)O)[C@H]2OC(Cc3ccccc3)O[C@H]21 (some centres not stated) | 0.16 µM |
| Nc1ncnc2c1ncn2[C@@H]1O[C@H](COP(=O)(O)O)[C@H]2OC(C#Cc3ccccc3)O[C@H]21 (some centres not stated) | 57.1 µM |
| Nc1ncnc2c1ncn2[C@@H]1O[C@H](COP(=O)(O)O)[C@H]2OC(/C=C/c3ccccc3)O[C@H]21 (some centres not stated) | 45.1 µM |
| O=C(Nc1ccccc1)Nc1ncnc2c1ncn2[C@@H]1O[C@H](COP(=O)(O)O)[C@@H](O)[C@H]1O | 3.11 µM |
| O=C(Nc1ccc(F)cc1)Nc1ccn([C@@H]2O[C@H](COP(=O)(O)OP(=O)(O)OP(=O)(O)OP(=O)(O)OC[C@@H]3O[C@H](n4ccc(=O)[nH]c4=O)[C@H]4O[C@@H](Cc5ccccc5)O[C@H]43)[C@@H](O)[C@H]2O)c(=O)n1 | 23.9 µM |
| O=C(Nc1ccccc1)Nc1ncnc2c1ncn2[C@@H]1O[C@H](COP(=O)(O)OP(=O)(O)O)[C@H]2O[C@@H](Cc3ccccc3)O[C@H]21 | 0.052 µM |
| O=C(Nc1ccccc1)Nc1ncnc2c1ncn2[C@@H]1O[C@H](COP(=O)(O)OP(=O)(O)O)[C@@H](O)[C@H]1O | 10.8 µM |
| Nc1ncnc2c1ncn2[C@@H]1O[C@H](COP(=O)(O)OP(=O)(O)OP(=O)(O)OP(=O)(O)OC[C@@H]2O[C@H](n3cnc4c(N)ncnc43)[C@@H](O)[C@H]2O)[C@H]2OC(Cc3ccccc3)O[C@H]21 (some centres not stated) | 6.54 µM |
| CCCCCCCC1O[C@@H]2[C@H](O1)[C@@H](COP(=O)(O)OP(=O)(O)OP(=O)(O)OP(=O)(O)OC[C@@H]1O[C@H](n3ccc(=O)[nH]c3=O)[C@H]3OC(CCCCCCC)O[C@H]31)O[C@H]2n1ccc(=O)[nH]c1=O (some centres not stated) | 10.7 µM |
| CCCCCCCC1O[C@@H]2[C@H](O1)[C@@H](COP(=O)(O)OP(=O)(O)OP(=O)(O)OP(=O)(O)OC[C@@H]1O[C@H](n3ccc(=O)[nH]c3=O)[C@@H](O)[C@H]1O)O[C@H]2n1ccc(=O)[nH]c1=O (some centres not stated) | 16.9 µM |
| O=c1ccn([C@@H]2O[C@H](COP(=O)(O)OP(=O)(O)OP(=O)(O)OP(=O)(O)OC[C@@H]3O[C@H](n4ccc(=O)[nH]c4=O)[C@@H](O)[C@H]3O)[C@@H]3OC(Cc4ccccc4)O[C@H]32)c(=O)[nH]1 (some centres not stated) | 27.1 µM |

Further compounds by falling IC50, results first:

| IC50 | SMILES |
| --- | --- |
| 34.7 µM | O=c1ccn([C@@H]2O[C@H](COP(=O)(O)OP(=O)(O)OP(=O)(O)OC[C@@H]3O[C@H](n4ccc(=O)[nH]c4=O)[C@@H](O)[C@H]3O)[C@H]3OC(Cc4ccccc4)O[C@H]32)c(=O)[nH]1 (some centres not stated) |
| 23 µM | Nc1ncnc2c1ncn2[C@@H]1O[C@H](COP(=O)(O)OP(=O)(O)O)[C@H]2O[C@@H](Cc3ccccc3)O[C@H]21 |
| 16.7 µM | O=c1ccn([C@@H]2O[C@H](COP(=O)(O)OP(=O)(O)OP(=O)(O)OP(=O)(O)OC[C@@H]3O[C@H](n4ccc(=O)[nH]c4=O)[C@@H](O)[C@H]3O)[C@@H]3OC(c4ccccc4)O[C@H]32)c(=O)[nH]1 (some centres not stated) |
| 12.9 µM | O=C(Nc1ccc(F)cc1)Nc1ccn([C@@H]2O[C@H](COP(=O)(O)OP(=O)(O)OP(=O)(O)OP(=O)(O)OC[C@@H]3O[C@H](n4ccc(=O)[nH]c4=O)[C@@H](O)[C@H]3O)[C@H]3O[C@@H](Cc4ccccc4)O[C@H]32)c(=O)n1 |
| 11.7 µM | Nc1ncnc2c1ncn2[C@@H]1O[C@H](COP(=O)(O)OP(=O)(O)OP(=O)(O)OP(=O)(O)OC[C@@H]2O[C@H](n3cnc4c(N)ncnc43)[C@H]3OC(Cc4ccccc4)O[C@H]32)[C@H]2OC(Cc3ccccc3)O[C@H]21 (some centres not stated) |
| 11.2 µM | O=C(Nc1ccc(F)cc1)Nc1ccn([C@@H]2O[C@H](COP(=O)(O)O)[C@H]3O[C@@H](Cc4ccccc4)O[C@H]32)c(=O)n1 |
| 8.29 µM | O=c1ccn([C@@H]2O[C@H](COP(=O)(O)OP(=O)(O)OP(=O)(O)OP(=O)(O)OC[C@@H]3O[C@H](n4ccc(=O)[nH]c4=O)[C@H]4OC(c5ccccc5)O[C@H]43)[C@H]3OC(c4ccccc4)O[C@H]32)c(=O)[nH]1 (some centres not stated) |
| 4.63 µM | O=c1ccn([C@@H]2O[C@H](COP(=O)(O)OP(=O)(O)OP(=O)(O)OC[C@@H]3O[C@H](n4ccc(=O)[nH]c4=O)[C@H]4OC(Cc5ccccc5)O[C@H]43)[C@H]3OC(Cc4ccccc4)O[C@H]32)c(=O)[nH]1 (some centres not stated) |
| 1.82 µM | O=c1ccn([C@@H]2O[C@H](COP(=O)(O)OP(=O)(O)OP(=O)(O)OP(=O)(O)OC[C@@H]3O[C@H](n4ccc(=O)[nH]c4=O)[C@H]4OC(Cc5ccccc5)O[C@H]43)[C@H]3OC(Cc4ccccc4)O[C@H]32)c(=O)[nH]1 (some centres not stated) |
| 0.522 µM | O=C(Nc1ccccc1)Nc1ncnc2c1ncn2[C@@H]1O[C@H](COP(=O)(O)OP(=O)(O)OP(=O)(O)OP(=O)(O)OC[C@@H]2O[C@H](n3cnc4c(NC(=O)Nc5ccccc5)ncnc43)[C@H]3O[C@@H](Cc4ccccc4)O[C@H]32)[C@H]2O[C@@H](Cc3ccccc3)O[C@H]21 |
| 0.288 µM | O=C(Nc1ccccc1)Nc1ncnc2c1ncn2[C@@H]1O[C@H](COP(=O)(O)O)[C@H]2OC(C#Cc3ccccc3)O[C@H]21 (some centres not stated) |
| 0.21 µM | O=C(Nc1ccccc1)Nc1ncnc2c1ncn2[C@@H]1O[C@H](COP(=O)(O)O)[C@H]2OC(/C=C/c3ccccc3)O[C@H]21 (some centres not stated) |
